Test [1] has as its system 5′-d(CGCATATATGCG)-3′ (DNA, duplex) CGCATATATGCG
Nature of the test: native nESI-MS. Conditions: K+ 100 μM (KCl), NH4+ 150 mM; 150 mM ammonium acetate, pH 7, 1% DMSO; 9 μM DNA, 100 μM compound.

Test [2] has the same test system. Nature of the test: 1H NMR titration and NOESY. Conditions: 50 mM phosphate pH 7.4, 9:1 H2O/D2O, 298 K (cooled to 274 K); 1 mM duplex; slow exchange.

From PMC9745797 (2022) come the findings set out here.

The structures appear in SMILES notation.

Regarding `Cn1cc(NC(=O)c2cc(NC(=O)c3ccc(/C=C/c4cnc5ccccc5c4)cc3)cn2C)cc1C(=O)NCCN1CCOCC1`, the binding entry in test [1] and in test [2] was “yes” throughout.
